What is called IC50 is the concentration that inhibits the measured activity by half.

Where “and” joins values, the source holds several entries; their conditions need not be identical. Equal values may be shown once. Where only a bound is given, the exact number is not on record here.

This note sets out measurements from patent US20080045535A1, “Prokineticin 2 receptor antagonists” (priority 2005, published 2008).

The assay has as its target T1, HEK 293 GPR73 (prokineticin 1 receptor) expressing cells (Homo sapiens, UniProt Q8TCW9).
T1 construct: expressed in transfected cells; host or cells: HEK 293
Description: PK1 functional assay: screening for PK1 antagonists on the FLIPR (calcium fluorescence). The assay is classed as cell-based. Conditions: HEK 293 GPR73 cells; for inhibition at 10 µM: HEK293, compound at 10 μM, read-out: Ca^2+ Mobilization % Inh @10 μM; for inhibition at 10 µM / Ca^2+ Mobilization % Inh @10 μM: multiple values = repeat tests; for IC50: PK1 ligand at EC50, multiple values = repeat tests, read-out: Ca^2+ Mobilization IC50; for Ca^2+ Mobilization % Inh @10 μM: compound at 10 μM. The procedure:
At a time of 24 h prior to running the assay, in cell culture media (DMEM containing high Glucose and L-glutamine, 10% FBS, 1% Pen/Streptomycin, 1% Sodium Pyruvate, 20 mM HEPES, Zeocin 200 mg/L), 100 μL of 1.3*10^6/ml HEK 293 GPR73 (prokineticin 1 receptor) expressing cells were plated in a 96 well poly-d-lysine coated plate (Costar), and incubated at 37 C and 5% CO2. On the day in which the assay was run, the media was removed and 200 μL of 5× Calcium Plus Dye (Molecular Devices) which was previously resuspended with 200 mL of assay buffer [HBSS w/Ca^2+ and Mg^2+ w/o phenol red, 20 mM HEPES, 0.1% BSA, 10 mL probenecid (710 mg probenecid in 5 mL of 1N NaOH, to which was then added 5 mL HBSS containing 20 mM HEPES)] was added to each well of the 96-well plate. The plate was incubated at 37 C and 5% CO2 for 30 min in dark. The plate was removed and allowed to reach RT for 15 min in the dark. The assay was then run on the FLIPR. […] Baseline is described as the amount of relative fluorescence read when buffer alone is added to cells. Baseline was subtracted from all wells. Percent of control was calculated as follows:
(Baseline subtracted well value is divided by baseline subtracted max value)*100.
Percent inhibition is 100 minus the percent of control value.
IC50 values were calculated using GraphPad Prism.
Table 2 includes data generated from the PK1 functional assay described in Example 2.

T1 sequence (Q8TCW9 whole entry): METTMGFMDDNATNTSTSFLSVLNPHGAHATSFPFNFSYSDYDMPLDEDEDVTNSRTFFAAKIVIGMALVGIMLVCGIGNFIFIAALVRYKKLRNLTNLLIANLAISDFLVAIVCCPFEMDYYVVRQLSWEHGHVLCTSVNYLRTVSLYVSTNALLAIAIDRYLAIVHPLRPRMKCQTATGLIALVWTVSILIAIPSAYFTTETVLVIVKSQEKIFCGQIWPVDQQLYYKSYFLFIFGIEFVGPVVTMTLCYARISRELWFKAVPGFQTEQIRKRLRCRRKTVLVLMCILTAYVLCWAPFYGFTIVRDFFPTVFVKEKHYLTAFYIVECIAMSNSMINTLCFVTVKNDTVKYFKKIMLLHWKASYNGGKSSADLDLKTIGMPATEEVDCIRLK

As for `COc1ccc(Cn2c(NCCNC3=NCCN3)nc(=O)n(Cc3ccc(Cl)c(Cl)c3)c2=O)cc1` [Cpd 49, 3-(3,4-Dichloro-benzyl)-6-[2-(4,5-dihydro-1H-imidazol-2-ylamino)-ethylamino]-1-(4-methoxy-benzyl)-1H-[1,3,5]triazine-2,4-dione], the inhibition at 10 µM was found to be 75% and the IC50 was 2 µM.
Taken in the same sequence, the figures for `CC(=O)Nc1ccc(Cn2c(NCCNC(=N)N)nc(=O)n(Cc3ccc(Cl)c(Cl)c3)c2=O)cc1` [Cpd 50] were 96% and 0.248 µM.
Taken in the same sequence, the figures for `N=C(N)NCCNc1nc(=O)n(Cc2ccc(Cl)c(Cl)c2)c(=O)n1Cc1ccc(C(N)=O)cc1` [Cpd 51, 4-[3-(3,4-Dichlorobenzyl)-6-(2-guanidinoethylamino)-2,4-dioxo-3,4-dihydro-2H-[1,3,5]triazin-1-yl-methyl]-benzamide] were 100% and 0.047 µM.
Take `CCOc1cccc(Cn2c(NCCNC(=N)N)nc(=O)n(Cc3ccc(Cl)c(Cl)c3)c2=O)c1` [Cpd 52]: the inhibition at 10 µM was 58% and the IC50 came to 6.52 µM.
With `CCCNC(=N)NCCNc1nc(=O)n(Cc2ccc(Cl)c(Cl)c2)c(=O)n1Cc1ccc(OC)cc1` [Cpd 54], the inhibition at 10 µM was found to be 98%; the concentration for half-maximal inhibition (IC50) is 0.014 µM and 0.006 µM. Under “10 µM”, the “Ca^2+ Mobilization % Inh @10 μM” value worked out at 101%.
On to `COc1ccc(Cn2c(N3CCC(NC(=N)N)C3)nc(=O)n(Cc3ccc(Cl)c(Cl)c3)c2=O)cc1` (stereo not shown) [Cpd 55], for which the inhibition at 10 µM came to 58% and the IC50 is 6.73 µM.
Taken in the same sequence, the figures for `COc1ccc(Cn2c(N[C@@H]3CCCC[C@H]3NC(=N)N)nc(=O)n(Cc3ccc(Cl)cc3)c2=O)cc1` [Cpd 56] were 98% and 0.061 µM.
The corresponding values for `N=C(N)NCCNc1nc(=O)n(Cc2ccc(Cl)c(Cl)c2)c(=O)n1Cc1cccc(OC(F)F)c1` [Cpd 57] are 51% and 8.21 µM.
As for `COc1ccc(Cn2c(NCCN(C(=N)N)C(C)C)nc(=O)n(Cc3ccc(Cl)c(Cl)c3)c2=O)cc1` [Cpd 58, N-{2-[5-(3,4-Dichloro-benzyl)-1-(4-methoxy-benzyl)-4,6-dioxo-1,4,5,6-tetrahydro-[1,3,5]triazin-2-ylamino]-ethyl}-N-isopropyl-guanidine], the concentration for half-maximal inhibition (IC50) was determined as 0.016 µM. In addition, the “Ca^2+ Mobilization % Inh @10 μM” value (10 µM) was 102% and 99% and 98%.
`CCN(CCNc1nc(=O)n(Cc2ccc(Cl)c(Cl)c2)c(=O)n1Cc1ccc(OC)cc1)C(=N)N` [Cpd 59]: the inhibition at 10 µM was determined as 99%; the half-maximal inhibitory concentration (IC50) is 0.05 µM and 0.035 µM. The “Ca^2+ Mobilization % Inh @10 μM” value (10 µM) is 100%.
In the case of `COc1ccc(Cn2c(NCCN3CCNC3=N)nc(=O)n(Cc3ccc(Cl)c(Cl)c3)c2=O)cc1` [Cpd 60, 3-(3,4-Dichloro-benzyl)-6-[2-(2-imino-imidazolidin-1-yl)-ethylamino]-1-(4-methoxy-benzyl)-1H-[1,3,5]triazine-2,4-dione], the inhibition at 10 µM is 100% and the IC50 came to 0.054 µM.
As for `CCCCNC(=N)NCCNc1nc(=O)n(Cc2ccc(Cl)c(Cl)c2)c(=O)n1Cc1ccc(OC)cc1` [Cpd 61], the inhibition at 10 µM came to 102% and the IC50 stood at 0.045 µM.
As to `COc1ccc(Cn2c(NCCNC(=N)NC3CCCCC3)nc(=O)n(Cc3ccc(Cl)c(Cl)c3)c2=O)cc1` [Cpd 62], the inhibition at 10 µM was 98% and the IC50 is 0.059 µM.
Taken in the same sequence, the figures for `COc1ccc(Cn2c(NCCNC(=N)NCc3ccccc3)nc(=O)n(Cc3ccc(Cl)c(Cl)c3)c2=O)cc1` [Cpd 63] were 101% and 0.12 µM.
The corresponding values for `COc1ccc(Cn2c(NCCNC(=N)NCC3CCCO3)nc(=O)n(Cc3ccc(Cl)c(Cl)c3)c2=O)cc1` (stereo not shown) [Cpd 64] are 100% and 0.072 µM.
As for `COc1ccc(Cn2c(NCCNC(=N)NCCc3ccccc3)nc(=O)n(Cc3ccc(Cl)c(Cl)c3)c2=O)cc1` [Cpd 65], the half-inhibitory concentration (IC50) stood at 0.485 µM and the “Ca^2+ Mobilization % Inh @10 μM” value came to 88%.
With `COc1ccc(Cn2c(NCCNC(=N)NCc3ccco3)nc(=O)n(Cc3ccc(Cl)c(Cl)c3)c2=O)cc1` [Cpd 66], the inhibition at 10 µM stood at 99% and the concentration for half-maximal inhibition (IC50) worked out at 0.023 µM.
In the case of `COCCNC(=N)NCCNc1nc(=O)n(Cc2ccc(Cl)c(Cl)c2)c(=O)n1Cc1ccc(OC)cc1` [Cpd 67], the inhibition at 10 µM came out at 99% and the IC50 is 0.018 µM.
Taken in the same sequence, the figures for `COc1ccc(Cn2c(NCCCNC(=N)N)nc(=O)n(Cc3ccc(Cl)c(Cl)c3)c2=O)cc1` [Cpd 68] were 84% and 1.21 µM.
As to `C=CCNC(=N)NCCNc1nc(=O)n(Cc2ccc(Cl)c(Cl)c2)c(=O)n1Cc1ccc(OC)cc1` [Cpd 70], the inhibition at 10 µM was found to be 101%; the half-maximal inhibitory concentration (IC50) was 0.009 µM and 0.007 µM; the “Ca^2+ Mobilization % Inh @10 μM” value is 101, 101%.
For `COc1ccc(Cn2c(NCCNC(=N)Nc3ccccc3)nc(=O)n(Cc3ccc(Cl)c(Cl)c3)c2=O)cc1` [Cpd 71], the inhibition at 10 µM was determined as 100%; the IC50 is 0.012 µM and 0.007 µM. For the same compound, for the setting “10 µM”, the “Ca^2+ Mobilization % Inh @10 μM” value amounted to 99%.
As to `COc1ccc(Cn2c(NCCNC(=N)Nc3ccc(OC)cc3)nc(=O)n(Cc3ccc(Cl)c(Cl)c3)c2=O)cc1` [Cpd 72], the inhibition at 10 µM turned out to be 100% and the IC50 was 0.064 µM.
As for `COc1ccc(Cn2c(NCCNC(=N)Nc3ccc(Cl)cc3)nc(=O)n(Cc3ccc(Cl)c(Cl)c3)c2=O)cc1` [Cpd 73], the inhibition at 10 µM came out at 100% and the IC50 is 0.039 µM.
Taken in the same sequence, the figures for `COc1ccc(Cn2c(NCCNC(=N)Nc3ccc(C(F)(F)F)cc3)nc(=O)n(Cc3ccc(Cl)c(Cl)c3)c2=O)cc1` [Cpd 74] were 100% and 0.138 µM.
As for `COc1ccc(Cn2c(NCCNC(=N)Nc3cccnc3)nc(=O)n(Cc3ccc(Cl)c(Cl)c3)c2=O)cc1` [Cpd 75], the inhibition at 10 µM is 101% and the concentration for half-maximal inhibition (IC50) was determined as 0.036 µM.
With `COc1ccc(Cn2c(NCCNC(=N)Nc3ccc(C(C)=O)cc3)nc(=O)n(Cc3ccc(Cl)c(Cl)c3)c2=O)cc1` [Cpd 76], the inhibition at 10 µM stood at 93% and the concentration for half-maximal inhibition (IC50) worked out at 0.23 µM.
Regarding `COc1ccc(Cn2c(NCCNC(=N)N)nc(=O)n(Cc3ccoc3)c2=O)cc1` [Cpd 77], the inhibition at 10 µM was 81% and the IC50 stood at 0.789 µM.
`COc1ccc(Cn2c(NCCNC(=N)N)nc(=O)n(Cc3cccs3)c2=O)cc1` [Cpd 78]: the inhibition at 10 µM was 89% and the IC50 came to 0.3 µM.
Taken in the same sequence, the figures for `COc1ccc(Cn2c(NCCNC(=N)N)nc(=O)n(C(C)c3ccc(OC)cc3)c2=O)cc1` (stereo not shown) [Cpd 79] were 101% and 0.071 µM.
On to `COc1ccc(Cn2c(NCCNC(=N)N)nc(=O)n(Cc3ccc(OC(F)F)cc3)c2=O)cc1` [Cpd 80], for which the inhibition at 10 µM is 100% and the half-maximal inhibitory concentration (IC50) worked out at 0.071 µM.
The corresponding values for `COc1ccc(Cn2c(NCCNC(=N)N)cc(=O)n(Cc3ccccc3)c2=O)cc1` [Cpd 81, N-{2-[1-Benzyl-3-(4-methoxy-benzyl)-2,6-dioxo-1,2,3,6-tetrahydro-pyrimidin-4-ylamino]-ethyl}-guanidine] are 84% and 0.452 µM.
Regarding `C=CCC(c1ccc(OC)cc1)n1c(=O)nc(NCCNC(=N)N)n(Cc2ccc(OC)cc2)c1=O` (stereo not shown) [Cpd 82], the inhibition at 10 µM turned out to be 84% and the IC50 was 0.498 µM.
The corresponding values for `C=CCC(c1ccc(Cl)cc1)n1c(=O)nc(NCCNC(=N)N)n(Cc2ccc(OC)cc2)c1=O` (stereo not shown) [Cpd 83] are 80% and 0.988 µM.
The corresponding values for `COc1ccc(Cn2c(NCCNC(=N)N)cc(=O)n(Cc3ccc(OC)cc3)c2=O)cc1` [Cpd 84, N-{2-[1,3-Bis-(4-methoxy-benzyl)-2,6-dioxo-1,2,3,6-tetrahydro-pyrimidin-4-ylamino]-ethyl}-guanidine] are 99% and 0.042 µM.
Taken in the same sequence, the figures for `COc1ccc(Cn2c(=O)nc(NCCNC(=N)N)n(Cc3ccc(OC)nc3)c2=O)cc1` [Cpd 85] were 96% and 0.051 µM.
In the case of `COc1ccc(Cn2c(=O)nc(NCCNC(=N)N)n(CC3CCC(OC)CC3)c2=O)cc1` (stereo not shown) [Cpd 86], the inhibition at 10 µM was 61% and the IC50 was determined as 3.26 µM.
The corresponding values for `N=C(N)NCCNc1nc(=O)n(Cc2ccc(F)cc2)c(=O)n1Cc1ccc([N+](=O)[O-])cc1` [Cpd 87] are 38% and above 10 µM.
Taken in the same sequence, the figures for `COc1ccc(Cn2c(NCCNC(=N)NCCN3CCOCC3)nc(=O)n(Cc3ccc(F)cc3)c2=O)cc1` [Cpd 88] were 59% and 4.74 µM.
Regarding `COc1ccc(Cn2c(NCCNC(=N)NCCCN3CCOCC3)nc(=O)n(Cc3ccc(F)cc3)c2=O)cc1` [Cpd 89], the inhibition at 10 µM stood at 46% and the IC50 came to 9.07 µM.
